What was measured:
[1] = system: γ2-MSH-induced calcium release in HEK-MrgC11; assay: γ2-MSH-induced [Ca2+]i response in HEK-MrgC11 with pathway inhibitors; assay type: cell-based, human; conditions: HEK-MrgC11, 1 μM γ2-MSH; 10 μM U73122 or U73343 10 min pretreatment; 1 μM TG in 2 mM EGTA
Description: (§1) Cells loaded with Fura-2/AM were stimulated with each agonist and fluorescence was recorded. Graphs represent an average plot of [Ca^2+]i measurements versus time (in s) in a minimum of 8 cells from representative experiments. Individual data points represent images taken at 0.8-s intervals. […] After a 10 minute pretreatment with U73122 and U73343, each agonist was added. FIGS. 2B and E show the extracellular [Ca^2+] dependency of Ca^2+ mobilization. Cells were preincubated for 2 minutes with 2 mM EGTA (open circles) or normal medium containing 1.2 mM calcium (closed circles) and then 3 μM FLRFa or 1 μM γ2-MSH was added. […] In the presence of 2 mM EGRA, TG (1 μM final concentration) was added to deplete internal Ca^2+ stores.
(§2) The calcium source responsible for the initial peak in [Ca^2+]i was determined by depleting internal calcium stores with the application of 1 μM TG (FIGS. 2C and F).
(§3) Heterotrimeric G proteins of the Gαi and Gαq class are involved in the propagation of signals from GPCRs leading to [Ca^2+]i elevation (Guderman et al. Ann. Rev. Pharmacol. Toxicol. 36:429-459 (1996)). To determine whether Gαi/o proteins are involved in the [Ca^2+]i response, we pretreated HEK-MrgA1 or HEK-MrgC11 cells with PTX (100 ng/ml) for 16 h. […] The dose dependency in [Ca^2+]i responses for both receptors were not affected by PTX (FIGS. 4A and D).

[2] = system: FLRFa-induced calcium release in HEK-MrgA1; assay: FLRFa-induced [Ca2+]i response in HEK-MrgA1 with pathway inhibitors; assay type: cell-based, human; conditions: HEK-MrgA1, 3 μM FLRFa; 10 μM U73122 or U73343 10 min pretreatment; 1 μM TG in 2 mM EGTA
Description: as §1, §2, §3

COc1ccc2c(c1)CC[C@@H]1[C@@H]2CC[C@]2(C)[C@@H](NCCCCCCN3C(=O)CCC3=O)CC[C@@H]12 [U73343] was tested, and the “effect on γ2-MSH-induced calcium response” value [1] was “did not significantly affect” and the “effect on FLRFa-induced calcium response” value [2] was “did not significantly affect”.

Source: patent publication US20040121410A1, “Pain signaling molecules” (priority 2002, published 2004)
